| melting point [°C] | SMILES |
| --- | --- |
| 133 to 134 | O=C(Nc1nc(C(F)(F)C(F)(F)F)c(CCl)s1)c1cc(C(F)(F)F)cc(C(F)(F)F)c1 [Compound 47, N-(5-chloromethyl-4-pentafluoroethylthiazol-2-yl)-3,5-bis-trifluoromethylbenzamide] |
| 202 to 203 | CCOC(=O)c1sc(NC(=O)c2ccc(C)cc2)nc1C(F)(F)C(F)(F)F [Compound 2, N-(5-Ethoxycarbonyl-4-pentafluoroethylthiazol-2-yl)-4-methylbenzamide] |
| 154 to 155 | CCOC(=O)c1sc(NC(=O)c2cc(C(F)(F)F)cc(C(F)(F)F)c2)nc1C(F)(F)C(F)(F)F [Compound 68, N-(5-Ethoxycarbonyl-4-pentafluoroethylthiazol-2-yl)-3,5-bis-trifluoromethylbenzamide] |

Source: patent publication US20050090506A1, “Insecticidal perfluoroalkylthiazole derivatives” (Nippon Soda Co., Ltd., priority 2003, published 2005)
